Measurements: the supplement of paper PMC10307832

Experiments:
Experiment in all cases: relative viability (nuclei count vs DMSO), 5 days (fraction); higher = more cells survive
Trametinib + AZD7762 = compound: CC(=O)Nc1cccc(-n2c(=O)n(C3CC3)c(=O)c3c(Nc4ccc(I)cc4F)n(C)c(=O)c(C)c32)c1 [Trametinib] + NC(=O)Nc1cc(-c2cccc(F)c2)sc1C(=O)N[C@H]1CCCNC1 [AZD7762] (partner 0.2 µM)
Summary of the method: (§1)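 Each reported value is a median over duplicate plates. It expresses relative viability: treated-well nuclei count divided by vehicle-well nuclei count. Lung cancer cell lines in 1536-well plates were dosed by pin tool a day after seeding, alone with one drug or with a fixed anchor-drug dose plus five library-drug doses (not always all listed) in √10 steps, and nuclei were counted after 5 days.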

Trametinib + Bortezomib = compound: CC(=O)Nc1cccc(-n2c(=O)n(C3CC3)c(=O)c3c(Nc4ccc(I)cc4F)n(C)c(=O)c(C)c32)c1 [Trametinib] + CC(C)C[C@H](NC(=O)[C@H](Cc1ccccc1)NC(=O)c1cnccn1)B(O)O [Bortezomib] (partner 0.002 µM)
Summary of the method: as §1

Trametinib + Crizotinib = compound: CC(=O)Nc1cccc(-n2c(=O)n(C3CC3)c(=O)c3c(Nc4ccc(I)cc4F)n(C)c(=O)c(C)c32)c1 [Trametinib] + C[C@@H](Oc1cc(-c2cnn(C3CCNCC3)c2)cnc1N)c1c(Cl)ccc(F)c1Cl [Crizotinib] (partner 1 µM)
Summary of the method: as §1

[1] = compound: CN1C=C(C2=CC=CC=C21)/C=C\3/C4=C(C=CC=N4)NC3=O + Cc1cc(Nc2cc(N3CCN(C)CC3)nc(Sc3ccc(NC(=O)C4CC4)cc3)n2)n[nH]1 [Tozasertib] (partner 0.1 µM)
Summary of the method: as §1

Cell Line | relative viability (Trametinib + AZD7762; first compound 0.0025 µM) | relative viability (Trametinib + AZD7762; first compound 0.007906 µM) | relative viability (Trametinib + AZD7762; first compound 0.07906 µM) | relative viability (Trametinib + AZD7762; first compound 0.25 µM) | relative viability (Trametinib + Bortezomib; first compound 0.0025 µM) | relative viability (Trametinib + Bortezomib; first compound 0.007906 µM) | relative viability (Trametinib + Bortezomib; first compound 0.07906 µM) | relative viability (Trametinib + Bortezomib; first compound 0.25 µM) | relative viability (Trametinib + Crizotinib; first compound 0.0025 µM) | relative viability (Trametinib + Crizotinib; first compound 0.007906 µM) | relative viability (Trametinib + Crizotinib; first compound 0.07906 µM) | relative viability (Trametinib + Crizotinib; first compound 0.25 µM) | relative viability ([1]; first compound 0.02 µM) | relative viability ([1]; first compound 0.06325 µM) | relative viability ([1]; first compound 0.6325 µM) | relative viability ([1]; first compound 2 µM) | relative viability (Trametinib + AZD7762; first compound 0.025 µM) | relative viability (Trametinib + Bortezomib; first compound 0.025 µM) | relative viability (Trametinib + Crizotinib; first compound 0.025 µM) | relative viability ([1]; first compound 0.2 µM)
NCI-H1734 | 0.476 | 0.451 | 0.509 | 0.369 | 0.901 | 0.987 | 0.734 | 0.349 | 0.644 | 0.622 | 0.493 | 0.285 | 0.281 | 0.311 | 0.295 | 0.284 | – | – | – | –
NCI-H2126 | 1.05 | 0.929 | 0.766 | 0.753 | 1.11 | 0.956 | 0.983 | 0.769 | 1.01 | 0.959 | 0.832 | 0.749 | 0.85 | 0.756 | 0.807 | 0.836 | 0.632 | 0.685 | 0.788 | 0.807
LOU-NH91 | 0.769 | 0.704 | 0.676 | 0.548 | 0.505 | 0.489 | 0.508 | 0.334 | 0.722 | 0.667 | 0.636 | 0.501 | 0.567 | 0.661 | 0.688 | 0.657 | 0.704 | 0.491 | 0.714 | 0.621
NCI-H1651 | 0.454 | 0.427 | 0.439 | 0.186 | 0.967 | 0.9 | 0.83 | 0.43 | 0.898 | 0.804 | 0.743 | 0.729 | 0.799 | 0.673 | 0.698 | 0.728 | 0.352 | 0.801 | 0.828 | 0.664
HCC-366 | 0.24 | 0.24 | 0.167 | 0.143 | 0.962 | 0.897 | 0.645 | 0.172 | 0.446 | 0.425 | 0.246 | 0.0629 | 0.09 | 0.109 | 0.0587 | 0.0526 | 0.323 | 0.902 | 0.34 | 0.0765
EKVX | 0.653 | 0.712 | 0.442 | 0.769 | 0.797 | 0.628 | 0.373 | 0.331 | 0.779 | 0.778 | 0.564 | 0.4 | 0.297 | 0.422 | 0.355 | 0.38 | 0.583 | 0.6 | 0.765 | 0.402
NCI-H1993 | 0.694 | 0.716 | 0.504 | 0.472 | 0.861 | 0.834 | 0.48 | 0.596 | 0.796 | 0.716 | 0.674 | 0.662 | 0.565 | 0.565 | 0.652 | 0.559 | 0.395 | 0.558 | 0.797 | 0.552
NCI-H23 | 0.256 | 0.233 | 0.158 | 0.191 | 0.853 | 1.01 | 0.377 | 0.21 | 0.389 | 0.428 | 0.387 | 0.263 | 0.48 | 0.365 | 0.328 | 0.227 | 0.232 | 0.364 | 0.34 | 0.304
HCC-827 | 0.226 | 0.17 | 0.183 | 0.161 | 0.943 | 0.989 | 0.92 | 0.748 | 0.931 | 0.946 | 0.859 | 0.532 | 0.378 | 0.405 | 0.53 | 0.395 | 0.153 | 0.974 | 0.889 | –
PC-3 [JPC-3] | 0.714 | 0.501 | – | 0.568 | 0.862 | 0.815 | 0.716 | 0.262 | 1.02 | 0.968 | 0.737 | 0.601 | 0.863 | 0.897 | 0.746 | 0.913 | 0.506 | 0.837 | 0.919 | 0.92
NCI-H1355 | 0.747 | 0.706 | 0.599 | 0.591 | 0.981 | 1.04 | 0.847 | 0.266 | 1.01 | 0.869 | 0.655 | 0.47 | 0.52 | 0.599 | 0.412 | 0.368 | 0.539 | 0.554 | 0.645 | 0.523
NCI-H727 | 0.356 | 0.386 | 0.279 | 0.355 | 0.663 | 0.422 | 0.257 | 0.277 | 0.381 | 0.278 | 0.195 | 0.206 | 0.554 | 0.447 | 0.636 | 0.633 | 0.315 | 0.272 | 0.279 | 0.59
NCI-H1975 | 0.69 | 0.551 | 0.421 | 0.401 | 0.303 | 0.224 | 0.173 | 0.169 | 0.965 | 0.937 | 0.499 | 0.381 | 0.688 | 0.753 | 0.42 | 0.245 | 0.473 | 0.206 | 0.757 | 0.641
NCI-H460 | 0.731 | 0.751 | 0.505 | 0.338 | 1.03 | 0.82 | 0.346 | 0.043 | 0.857 | 0.552 | 0.289 | 0.0283 | 0.458 | 0.403 | 0.363 | 0.0797 | 0.739 | 0.544 | 0.476 | 0.448
EPLC-272H | 0.223 | 0.242 | 0.17 | 0.225 | 1.02 | 0.841 | 0.737 | 0.157 | 0.825 | 0.672 | 0.599 | 0.377 | 0.193 | 0.276 | – | 0.283 | 0.175 | 0.516 | 0.538 | 0.244
NCI-H322M | 0.602 | 0.436 | 0.414 | 0.425 | 1.29 | 1.14 | 1.03 | 0.717 | 0.943 | 0.986 | 0.697 | 1.04 | 0.46 | 0.5 | 0.507 | 0.639 | 0.482 | 0.879 | 0.686 | 0.485
